Measurements taken from patent US20220033407A1, “N-(pyridin-2-ylsulfonyl)cyclopropanecarboxamide Derivatives and their Use in the Treatment of Disease” (NOVARTIS AG, priority 2018, published 2022).

Biological target: T1, delF508-CFTR-HRP (Homo sapiens, UniProt P13569, DEL508-508)
T1 construct: expressed in transfected cells
Test: Measurement of delF508-CFTR-HRP surface expression in CFBE41o- cells (HRP luminescence);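 as to DelF508-CFTR-HRP Amax %: percent efficacy relative to a reference CFTR corrector compound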
Type: cell-based
Conditions: for Emax: CFBE41o-, read-out: DelF508-CFTR-HRP Amax %; for EC50: mean of at least two replicates
Summary of the method: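 EC50 derived by logistic regression of triplicate surface-HRP luminescence, plate-normalized to the lowest-concentration median. Doxycycline (500 ng/mL, 48 h) induced delF508-CFTR-HRP in CFBE41o- cells; compounds then applied 24 h at 37° C, 10 μM top, 3-fold over 10 points.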

T1 sequence (P13569 with tags, fused parts or gaps DEL508-508): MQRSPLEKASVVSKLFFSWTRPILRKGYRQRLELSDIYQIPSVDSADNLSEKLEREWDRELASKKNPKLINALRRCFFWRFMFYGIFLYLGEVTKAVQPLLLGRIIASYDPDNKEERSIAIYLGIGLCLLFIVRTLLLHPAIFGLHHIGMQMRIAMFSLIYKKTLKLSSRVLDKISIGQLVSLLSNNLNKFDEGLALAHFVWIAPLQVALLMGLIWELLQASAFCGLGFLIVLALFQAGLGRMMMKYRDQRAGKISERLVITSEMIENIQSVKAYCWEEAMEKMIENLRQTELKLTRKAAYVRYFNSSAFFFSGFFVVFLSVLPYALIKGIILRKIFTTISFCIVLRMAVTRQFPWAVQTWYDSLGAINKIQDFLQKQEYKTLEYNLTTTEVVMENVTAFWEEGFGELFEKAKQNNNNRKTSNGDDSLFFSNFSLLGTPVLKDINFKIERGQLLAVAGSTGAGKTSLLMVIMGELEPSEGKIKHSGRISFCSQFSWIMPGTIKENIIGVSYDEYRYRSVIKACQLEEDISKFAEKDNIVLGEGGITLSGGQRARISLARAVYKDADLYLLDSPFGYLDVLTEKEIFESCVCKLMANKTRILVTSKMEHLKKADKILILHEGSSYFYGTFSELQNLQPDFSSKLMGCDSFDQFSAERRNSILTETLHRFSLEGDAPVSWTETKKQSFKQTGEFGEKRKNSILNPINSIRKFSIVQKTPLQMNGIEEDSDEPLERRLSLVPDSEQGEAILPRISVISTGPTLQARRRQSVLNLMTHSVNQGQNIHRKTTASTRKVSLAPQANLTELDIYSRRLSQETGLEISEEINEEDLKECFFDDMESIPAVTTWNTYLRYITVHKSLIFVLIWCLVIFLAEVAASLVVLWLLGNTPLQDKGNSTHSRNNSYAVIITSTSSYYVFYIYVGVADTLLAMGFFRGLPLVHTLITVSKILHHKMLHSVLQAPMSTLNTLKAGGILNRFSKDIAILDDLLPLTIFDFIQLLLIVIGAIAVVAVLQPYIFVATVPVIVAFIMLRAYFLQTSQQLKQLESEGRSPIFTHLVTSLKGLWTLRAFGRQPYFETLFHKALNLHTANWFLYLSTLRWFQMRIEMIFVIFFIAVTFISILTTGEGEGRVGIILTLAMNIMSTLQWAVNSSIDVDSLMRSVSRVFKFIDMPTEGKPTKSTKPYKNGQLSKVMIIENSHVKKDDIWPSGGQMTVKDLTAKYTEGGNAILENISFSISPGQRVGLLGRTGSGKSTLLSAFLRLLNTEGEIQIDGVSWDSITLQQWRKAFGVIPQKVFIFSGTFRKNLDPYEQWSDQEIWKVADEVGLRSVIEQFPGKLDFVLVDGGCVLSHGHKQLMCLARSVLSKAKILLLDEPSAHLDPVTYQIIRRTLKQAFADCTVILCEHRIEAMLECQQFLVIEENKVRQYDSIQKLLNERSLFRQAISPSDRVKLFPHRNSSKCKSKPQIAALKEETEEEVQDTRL

Compound	Emax	EC50
O=C(NS(=O)(=O)c1cccc(N2CC[C@H](O)C2)n1)C1(Oc2cc(Cl)ccc2N2CCCC3(CCCC3)C2)CC1 [Example 9-15, (S)-1-(5-Chloro-2-(7-azaspiro[4.5]decan-7-yl)phenoxy)-N-((6-(3-hydroxypyrrolidin-1-yl)pyridin-2-yl)sulfonyl)cyclopropanecarboxamide]	477%	290 nM
CC1CC(C)CN(c2ccc(Cl)cc2OC2(C(=O)NS(=O)(=O)c3cccc(N4CC[C@H](O)C4)n3)CC2)C1 (stereo partly drawn) [Example 9-17, 1-(5-Chloro-2-(3,5-dimethylpiperidin-1-yl)phenoxy)-N-((6-((S)-3-hydroxypyrrolidin-1-yl)pyridin-2-yl)sulfonyl)cyclopropanecarboxamide]	176%	1290 nM
O=C(NS(=O)(=O)c1cccc(N2CC[C@H](O)C2)n1)C1(Oc2cc(Cl)ccc2N2CC3(COC3)C2)CC1 [Example 9-23, (S)-1-(5-Chloro-2-(2-oxa-6-azaspiro[3.3]heptan-6-yl)phenoxy)-N-((6-(3-hydroxypyrrolidin-1-yl)pyridin-2-yl)sulfonyl)cyclopropanecarboxamide]	13.7%	10000 nM
O=C(NS(=O)(=O)c1cccc(N2CC[C@H](O)C2)n1)C1(Oc2cc(C(F)(F)F)ccc2N2CC3(CCC3)C2)CC1 [Example 9-25, (S)-1-(2-(2-Azaspiro[3.3]heptan-2-yl)-5-(trifluoromethyl)phenoxy)-N-((6-(3-hydroxypyrrolidin-1-yl)pyridin-2-yl)sulfonyl)cyclopropanecarboxamide]	408%	1760 nM
O=C(NS(=O)(=O)c1cccc(N2CCC(O)(C(F)(F)F)CC2)n1)C1(Oc2cc(Cl)ccc2N2CCC3(CC2)CC3)CC1 [Example 9-31, 1-(5-Chloro-2-(6-azaspiro[2.5]octan-6-yl)phenoxy)-N-((6-(4-hydroxy-4-(trifluoromethyl)piperidin-1-yl)pyridin-2-yl)sulfonyl)cyclopropanecarboxamide]	553%	410 nM
CC(C)(C)OC1CCN(c2ccc(Cl)cc2OC2(C(=O)NS(=O)(=O)c3cccc(N4CC[C@H](O)C4)n3)CC2)C1 (stereo partly drawn) [Example 9-32, 1-(2-(3-(Tert-butoxy)pyrrolidin-1-yl)-5-chlorophenoxy)-N-((6-((S)-3-hydroxypyrrolidin-1-yl)pyridin-2-yl)sulfonyl)cyclopropanecarboxamide]	485%	1180 nM
CC1(C)CN(c2ccc(Cl)cc2OC2(C(=O)NS(=O)(=O)c3cccc(N4CC[C@H](O)C4)n3)CC2)CC2(CCCC2)O1 [Example 9-33, (S)-1-(5-Chloro-2-(7,7-dimethyl-6-oxa-9-azaspiro[4.5]decan-9-yl)phenoxy)-N-((6-(3-hydroxypyrrolidin-1-yl)pyridin-2-yl)sulfonyl)cyclopropanecarboxamide]	265%	2270 nM
CC(C)(C)C1CCN(c2ccc(Cl)cc2OC2(C(=O)NS(=O)(=O)c3cccc(N4CC[C@H](O)C4)n3)CC2)CC1 [Example 9-34, (S)-1-(2-(4-(Tert-butyl)piperidin-1-yl)-5-chlorophenoxy)-N-((6-(3-hydroxypyrrolidin-1-yl)pyridin-2-yl)sulfonyl)cyclopropanecarboxamide]	152%	910 nM
O=C(NS(=O)(=O)c1cccc(N2CC[C@H](O)C2)n1)C1(Oc2cc(Cl)ccc2N2CC3(CCOCC3)C2)CC1 [Example 9-36, (S)-1-(5-Chloro-2-(7-oxa-2-azaspiro[3.5]nonan-2-yl)phenoxy)-N-((6-(3-hydroxypyrrolidin-1-yl)pyridin-2-yl)sulfonyl)cyclopropanecarboxamide]	52%	1690 nM
O=C(NS(=O)(=O)c1cccc(N2CC[C@H](O)C2)n1)C1(Oc2cc(Cl)ccc2N2CCC(O)(c3ccccn3)CC2)CC1 [Example 9-37, (S)-1-(5-Chloro-2-(4-hydroxy-4-(pyridin-2-yl)piperidin-1-yl)phenoxy)-N-((6-(3-hydroxypyrrolidin-1-yl)pyridin-2-yl)sulfonyl)cyclopropanecarboxamide]	12.6%	80 nM
CC(C)[C@H](CO)Nc1cccc(S(=O)(=O)NC(=O)C2(Oc3cc(Cl)ccc3N3CCC(C)(C)CC3)CC2)n1 [Example 9-38, (R)-1-(5-Chloro-2-(4,4-dimethylpiperidin-1-yl)phenoxy)-N-((6-((1-hydroxy-3-methylbutan-2-yl)amino)pyridin-2-yl)sulfonyl)cyclopropane-1-carboxamide]	789%	1470 nM
COCCN(C)c1cccc(S(=O)(=O)NC(=O)C2(Oc3cc(Cl)ccc3N3CCC(C)(C)CC3)CC2)n1 [Example 10-5, 1-(5-chloro-2-(4,4-dimethylpiperidin-1-yl)phenoxy)-N-((6-((2-methoxyethyl)(methyl)amino)pyridin-2-yl)sulfonyl)cyclopropanecarboxamide]	475%	1020 nM

Second part, the compound after the results:

Emax	EC50	Compound
720%	2280 nM	CC1(C)CN(c2ccc(Cl)cc2OC2(C(=O)NS(=O)(=O)c3cccc(N4CC[C@H](O)C4)n3)CC2)C1 [Example 9-21, (S)-1-(5-Chloro-2-(3,3-dimethylazetidin-1-yl)phenoxy)-N-((6-(3-hydroxypyrrolidin-1-yl)pyridin-2-yl)sulfonyl)cyclopropanecarboxamide]
329%	1840 nM	CC1(C)CCN(c2ccc(C(F)(F)F)cc2OC2(C(=O)NS(=O)(=O)c3cccc(N4CC[C@H](O)C4)n3)CC2)CC1 [Example 9-26, (S)-1-(2-(4,4-Dimethylpiperidin-1-yl)-5-(trifluoromethyl)phenoxy)-N-((6-(3-hydroxypyrrolidin-1-yl)pyridin-2-yl)sulfonyl)cyclopropanecarboxamide]
857%	610 nM	CC1(C)CCCN(c2ccc(Cl)cc2OC2(C(=O)NS(=O)(=O)c3cccc(N4CC[C@](C)(O)C4)n3)CC2)C1 [Example 9-27, (S)-1-(5-Chloro-2-(3,3-dimethylpiperidin-1-yl)phenoxy)-N-((6-(3-hydroxy-3-methylpyrrolidin-1-yl)pyridin-2-yl)sulfonyl)cyclopropanecarboxamide]
755%	550 nM	C[C@]1(O)CCN(c2cccc(S(=O)(=O)NC(=O)C3(Oc4cc(Cl)ccc4N4CCC5(CC4)CC5)CC3)n2)C1 [Example 9-28, (S)-1-(5-Chloro-2-(6-azaspiro[2.5]octan-6-yl)phenoxy)-N-((6-(3-hydroxy-3-methylpyrrolidin-1-yl)pyridin-2-yl)sulfonyl)cyclopropanecarboxamide]
691%	950 nM	O=C(NS(=O)(=O)c1cccc(N2CC[C@@H](O)C2)n1)C1(Oc2cc(Cl)ccc2N2CCC3(CC2)CC3)CC1 [Example 9-29, (R)-1-(5-Chloro-2-(6-azaspiro[2.5]octan-6-yl)phenoxy)-N-((6-(3-hydroxypyrrolidin-1-yl)pyridin-2-yl)sulfonyl)cyclopropanecarboxamide]
590%	590 nM	CC1(C)CCCN(c2ccc(Cl)cc2OC2(C(=O)NS(=O)(=O)c3cccc(N4CC[C@@](C)(O)C4)n3)CC2)C1 [Example 9-30, (R)-1-(5-Chloro-2-(3,3-dimethylpiperidin-1-yl)phenoxy)-N-((6-(3-hydroxy-3-methylpyrrolidin-1-yl)pyridin-2-yl)sulfonyl)cyclopropanecarboxamide]
140%	340 nM	CC1(O)CCN(c2cccc(S(=O)(=O)NC(=O)C3(Oc4cc(Cl)ccc4N4CCC(C(C)(C)C)CC4)CC3)n2)CC1 [Example 9-35, 1-(2-(4-(Tert-butyl)piperidin-1-yl)-5-chlorophenoxy)-N-((6-(4-hydroxy-4-methylpiperidin-1-yl)pyridin-2-yl)sulfonyl)cyclopropanecarboxamide]
693%	1510 nM	CC1(C)CCN(c2ccc(Cl)cc2OC2(C(=O)NS(=O)(=O)c3cccc(N4CC5CCC(C4)O5)n3)CC2)CC1 [Example 9-40, N-((6-(8-Oxa-3-azabicyclo[3.2.1]octan-3-yl)pyridin-2-yl)sulfonyl)-1-(5-chloro-2-(4,4-dimethylpiperidin-1-yl)phenoxy)cyclopropane-1-carboxamide]
234%	1550 nM	Cc1ccc(N2CCC(C)(C)CC2)c(OC2(C(=O)NS(=O)(=O)c3cccc(N)n3)CC2)c1 [Example 9-44, N-((6-Aminopyridin-2-yl)sulfonyl)-1-(2-(4,4-dimethylpiperidin-1-yl)-5-methylphenoxy)cyclopropane-1-carboxamide]
189%	2170 nM	CC1(C)CCN(c2ccc(Cl)cc2OC2(C(=O)NS(=O)(=O)c3cccc(N)n3)CC2)CC1 [Example 9-45, N-((6-Aminopyridin-2-yl)sulfonyl)-1-(5-chloro-2-(4,4-dimethylpiperidin-1-yl)phenoxy)cyclopropane-1-carboxamide]
547%	530 nM	CC1(C)CCN(c2ccc(Cl)cc2OC2(C(=O)NS(=O)(=O)c3cccc(N4CC[C@](C)(O)C4)n3)CC2)CC1 [Example 10-1, (S)-1-(5-chloro-2-(4,4-dimethylpiperidin-1-yl)phenoxy)-N-((6-(3-hydroxy-3-methylpyrrolidin-1-yl)pyridin-2-yl)sulfonyl)cyclopropanecarboxamide]
493%	600 nM	CC1(C)CCN(c2ccc(Cl)cc2OC2(C(=O)NS(=O)(=O)c3cccc(N4CCC(c5ccccn5)CC4)n3)CC2)CC1 [Example 10-3, 1-(5-chloro-2-(4,4-dimethylpiperidin-1-yl)phenoxy)-N-((6-(4-(pyridin-2-yl)piperidin-1-yl)pyridin-2-yl)sulfonyl)cyclopropanecarboxamide]
604%	160 nM	CC1(C)CCCN(c2ccc(Cl)cc2OC2(C(=O)NS(=O)(=O)c3cccc(N4CCC(O)(C(F)(F)F)CC4)n3)CC2)C1 [Example 10-7, 1-(5-chloro-2-(3,3-dimethylpiperidin-1-yl)phenoxy)-N-((6-(4-hydroxy-4-(trifluoromethyl)piperidin-1-yl)pyridin-2-yl)sulfonyl)cyclopropanecarboxamide]
